Experimental data published in ChEMBL document CHEMBL1201862, “PubChem BioAssay data set” (2004).
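Dose response: 5 concentrations. Exposure: 48 h. Format: 96-well plates. Endpoint: linear interpolation; highest concentration if not reached. Abbreviation: GI50, concentration required for 50% inhibition of growth.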 Calls of active or inactive are those of the source. Rule as the data show it: active = GI50 up to about 1.1 µM and inactive = higher.

Columns and labels:
Assay in all cases: DTP human tumour cell line panel, 48 h
A498 = system: A498
A549 = system: A549
CAKI-1 = system: CAKI-1
CCRF-CEM = system: CCRF-CEM
COLO 205 = system: COLO 205
DLD-1 = system: DLD-1
DMS-114 = system: DMS-114
DMS-273 = system: DMS-273
EKVX = system: EKVX
HCC 2998 = system: HCC 2998
HCT-116 = system: HCT-116
HCT-15 = system: HCT-15
HL-60 = system: HL-60
HOP-18 = system: HOP-18
HOP-62 = system: HOP-62
HOP-92 = system: HOP-92
HT-29 = system: HT-29
IGROV-1 = system: IGROV-1
K562 = system: K562
KM-20L2 = system: KM-20L2
KM12 = system: KM12
LOX IMVI = system: LOX IMVI
M19-MEL = system: M19-MEL
MCF7 = system: MCF7
MOLT-4 = system: MOLT-4
Malme-3M = system: Malme-3M
NCI-H226 = system: NCI-H226
NCI-H23 = system: NCI-H23
NCI-H460 = system: NCI-H460
NCI-H522 = system: NCI-H522
NCI/ADR-RES = system: NCI/ADR-RES
OVCAR-3 = system: OVCAR-3
OVCAR-4 = system: OVCAR-4
OVCAR-5 = system: OVCAR-5
OVCAR-8 = system: OVCAR-8
RPMI-8226 = system: RPMI-8226
RXF 393 = system: RXF 393
SF-268 = system: SF-268
SF-295 = system: SF-295
SF-539 = system: SF-539
SK-MEL-28 = system: SK-MEL-28
SK-MEL-2 = system: SK-MEL-2
SK-MEL-5 = system: SK-MEL-5
SK-OV-3 = system: SK-OV-3
SN12C = system: SN12C
SNB-19 = system: SNB-19
SNB-75 = system: SNB-75
SNB-78 = system: SNB-78
SW-620 = system: SW-620
U-251 = system: U-251
UACC-257 = system: UACC-257
UACC-62 = system: UACC-62
UO-31 = system: UO-31
XF498 = system: XF498
786-0 = system: 786-0
ACHN = system: ACHN
LXFL 529 = system: LXFL 529
SR = system: SR
TK-10 = system: TK-10

## Cc1ccc(OP2(=O)Oc3ccc4ccccc4c3CN2c2ccc(Cl)cc2)cc1C (stereo not given)
A498
  GI50: > 100 µM (inactive)
A549
  GI50: > 100 µM (inactive)
CAKI-1
  GI50: > 100 µM (inactive)
CCRF-CEM
  GI50: > 100 µM (inactive)
COLO 205
  GI50: > 100 µM (inactive)
DLD-1
  GI50: > 100 µM (inactive)
DMS-114
  GI50: > 100 µM (inactive)
DMS-273
  GI50: > 100 µM (inactive)
EKVX
  GI50: > 100 µM (inactive)
HCC 2998
  GI50: > 100 µM (inactive)
HCT-116
  GI50: > 100 µM (inactive)
HCT-15
  GI50: > 100 µM
HL-60
  GI50: > 100 µM (inactive)
HOP-18
  GI50: > 100 µM (inactive)
HOP-62
  GI50: > 100 µM (inactive)
HOP-92
  GI50: > 100 µM (inactive)
HT-29
  GI50: > 100 µM (inactive)
IGROV-1
  GI50: > 100 µM (inactive)
K562
  GI50: > 100 µM (inactive)
KM-20L2
  GI50: > 100 µM (inactive)
KM12
  GI50: > 100 µM (inactive)
LOX IMVI
  GI50: > 100 µM (inactive)
M19-MEL
  GI50: > 100 µM (inactive)
MCF7
  GI50: > 100 µM (inactive)
MOLT-4
  GI50: > 100 µM (inactive)
Malme-3M
  GI50: > 100 µM (inactive)
NCI-H226
  GI50: > 100 µM (inactive)
NCI-H23
  GI50: > 100 µM (inactive)
NCI-H460
  GI50: > 100 µM (inactive)
NCI-H522
  GI50: > 100 µM (inactive)
NCI/ADR-RES
  GI50: > 100 µM (inactive)
OVCAR-3
  GI50: > 100 µM (inactive)
OVCAR-4
  GI50: > 100 µM (inactive)
OVCAR-5
  GI50: > 100 µM (inactive)
OVCAR-8
  GI50: > 100 µM (inactive)
RPMI-8226
  GI50: > 100 µM (inactive)
RXF 393
  GI50: > 100 µM (inactive)
SF-268
  GI50: > 100 µM (inactive)
SF-295
  GI50: > 100 µM (inactive)
SF-539
  GI50: > 100 µM (inactive)
SK-MEL-28
  GI50: > 100 µM (inactive)
SK-MEL-2
  GI50: > 100 µM (inactive)
SK-MEL-5
  GI50: > 100 µM (inactive)
SK-OV-3
  GI50: > 100 µM (inactive)
SN12C
  GI50: > 100 µM (inactive)
SNB-19
  GI50: > 100 µM (inactive)
SNB-75
  GI50: > 100 µM (inactive)
SNB-78
  GI50: > 100 µM (inactive)
SW-620
  GI50: > 100 µM (inactive)
U-251
  GI50: > 100 µM (inactive)
UACC-257
  GI50: > 100 µM (inactive)
UACC-62
  GI50: > 100 µM (inactive)
UO-31
  GI50: > 100 µM (inactive)
XF498
  GI50: > 100 µM (inactive)

## C#CC1(O)c2ccccc2C(=O)c2ccccc21
786-0
  GI50: > 100 µM (inactive)
A498
  GI50: 10.9 µM (inactive)
A549
  GI50: > 100 µM (inactive)
ACHN
  GI50: > 100 µM (inactive)
CAKI-1
  GI50: > 100 µM (inactive)
CCRF-CEM
  GI50: > 100 µM (inactive)
COLO 205
  GI50: > 100 µM (inactive)
DMS-273
  GI50: > 100 µM (inactive)
EKVX
  GI50: > 100 µM (inactive)
HCC 2998
  GI50: > 100 µM (inactive)
HCT-116
  GI50: > 100 µM (inactive)
HL-60
  GI50: > 100 µM (inactive)
HOP-18
  GI50: > 100 µM (inactive)
HOP-62
  GI50: > 100 µM (inactive)
HOP-92
  GI50: 21.6 µM (inactive)
HT-29
  GI50: > 100 µM (inactive)
IGROV-1
  GI50: 11.8 µM (inactive)
K562
  GI50: > 100 µM (inactive)
KM-20L2
  GI50: > 100 µM (inactive)
KM12
  GI50: > 100 µM (inactive)
LOX IMVI
  GI50: > 100 µM (inactive)
LXFL 529
  GI50: > 100 µM (inactive)
M19-MEL
  GI50: > 100 µM (inactive)
MOLT-4
  GI50: > 100 µM (inactive)
Malme-3M
  GI50: > 100 µM (inactive)
NCI-H226
  GI50: > 100 µM (inactive)
NCI-H23
  GI50: > 100 µM (inactive)
NCI-H460
  GI50: > 100 µM (inactive)
NCI-H522
  GI50: > 100 µM (inactive)
OVCAR-4
  GI50: > 100 µM (inactive)
OVCAR-5
  GI50: > 100 µM (inactive)
OVCAR-8
  GI50: > 100 µM (inactive)
RXF 393
  GI50: > 100 µM (inactive)
SF-268
  GI50: > 100 µM (inactive)
SF-295
  GI50: > 100 µM (inactive)
SF-539
  GI50: > 100 µM (inactive)
SK-MEL-28
  GI50: > 100 µM (inactive)
SK-MEL-2
  GI50: > 100 µM (inactive)
SN12C
  GI50: > 100 µM (inactive)
SNB-19
  GI50: > 100 µM (inactive)
SNB-78
  GI50: 35.9 µM (inactive)
SR
  GI50: > 100 µM (inactive)
SW-620
  GI50: > 100 µM (inactive)
TK-10
  GI50: > 100 µM (inactive)
U-251
  GI50: > 100 µM (inactive)
UACC-257
  GI50: > 100 µM (inactive)
XF498
  GI50: 84.7 µM (inactive)

## O=c1oc2cc(O)ccc2c2oc3cc(O)ccc3c12 [COUMESTROL]
A498
  GI50: 0.248 µM (active)
A549
  GI50: 43.1 µM (inactive)
CAKI-1
  GI50: 49.9 µM (inactive)
CCRF-CEM
  GI50: 8.81 µM (inactive)
COLO 205
  GI50: 26 µM (inactive)
DLD-1
  GI50: 62.5 µM (inactive)
DMS-114
  GI50: 9.89 µM (inactive)
DMS-273
  GI50: 54.7 µM (inactive)
EKVX
  GI50: 77.4 µM (inactive)
HCC 2998
  GI50: 53.6 µM (inactive)
HCT-116
  GI50: 32.7 µM (inactive)
HCT-15
  GI50: 54.5 µM
HL-60
  GI50: 6.93 µM (inactive)
HOP-18
  GI50: > 125 µM (inactive)
HOP-62
  GI50: 16 µM (inactive)
HOP-92
  GI50: > 118 µM (inactive)
HT-29
  GI50: 49 µM (inactive)
IGROV-1
  GI50: 79.8 µM (inactive)
K562
  GI50: 74 µM (inactive)
KM-20L2
  GI50: 41 µM (inactive)
KM12
  GI50: 111 µM (inactive)
LOX IMVI
  GI50: 42.1 µM (inactive)
M19-MEL
  GI50: 92.7 µM (inactive)
MCF7
  GI50: 96.8 µM (inactive)
MOLT-4
  GI50: 13.8 µM (inactive)
Malme-3M
  GI50: 79.6 µM (inactive)
NCI-H226
  GI50: 4.18 µM (inactive)
NCI-H23
  GI50: 58.5 µM (inactive)
NCI-H460
  GI50: 38.6 µM (inactive)
NCI-H522
  GI50: 6.46 µM (inactive)
NCI/ADR-RES
  GI50: 108 µM (inactive)
OVCAR-3
  GI50: 45.2 µM (inactive)
OVCAR-4
  GI50: 83.9 µM (inactive)
OVCAR-5
  GI50: > 125 µM (inactive)
OVCAR-8
  GI50: 70 µM (inactive)
RPMI-8226
  GI50: 45.8 µM (inactive)
RXF 393
  GI50: 54.1 µM (inactive)
SF-268
  GI50: 53.7 µM (inactive)
SF-295
  GI50: 76 µM (inactive)
SF-539
  GI50: 56.6 µM (inactive)
SK-MEL-28
  GI50: > 125 µM (inactive)
SK-MEL-2
  GI50: > 125 µM (inactive)
SK-MEL-5
  GI50: 9.91 µM (inactive)
SK-OV-3
  GI50: 42.1 µM (inactive)
SN12C
  GI50: 13.2 µM (inactive)
SNB-19
  GI50: 47.6 µM (inactive)
SNB-75
  GI50: 94.8 µM (inactive)
SNB-78
  GI50: 64.4 µM (inactive)
SW-620
  GI50: 59 µM (inactive)
U-251
  GI50: 33.3 µM (inactive)
UACC-257
  GI50: 87.9 µM (inactive)
UACC-62
  GI50: 71.6 µM (inactive)
UO-31
  GI50: 48.3 µM (inactive)
XF498
  GI50: > 19.8 µM (inactive)
